Data reported in patent publication US20230293518A1 (Edgewise Therapeutics, Inc., priority 2020, published 2023).

molecular target: skeletal myofibrils (myosin ATPase); experiment: Skeletal Myofibril ATPase Assay; type: biochemical; details: Table 4B
Method in brief: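 IC50 came from four-parameter logistic fits, bottom constrained ≥0, of (Max−Min) A340 values normalised to 1% DMSO controls. Readings were taken kinetically over 45 min at 1.5-2 min intervals, with ADP from myofibril myosin ATPase coupled through PK-LDH to NADH oxidation. Buffer was pCa (PIPES/CaCl2/EGTA), pH 7.0.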

First: O=C(Cn1nc(-c2ccc(OCC(F)(F)F)cc2)ccc1=O)NCc1ccncc1Cl [II-25, N-((3-chloropyridin-4-yl)methyl)-2-(6-oxo-3-(4-(2,2,2-trifluoroethoxy)phenyl)pyridazin-1(6H)-yl)acetamide]
Second: O=C(Cn1nc(-c2ccc(OCC(F)(F)F)cc2)ccc1=O)NCc1ccc[nH]c1=O [II-26, N-((2-oxo-1,2-dihydropyridin-3-yl)methyl)-2-(6-oxo-3-(4-(2,2,2-trifluoroethoxy)phenyl)pyridazin-1(6H)-yl)acetamide]
The IC50 of the first is higher: > 100 µM for the first, 10 to 100 µM for the second. The second is the more potent here.

same assay, conditions: Table 4C

`CCOc1ccc(-c2ccc(=O)n(CC(=O)NCc3ccccc3Cl)n2)cc1` [IIIa-1, N-(2-chlorobenzyl)-2-(3-(4-ethoxyphenyl)-6-oxopyridazin-1(6H)-yl)acetamide] and `COc1ccc(-c2ccc(=O)n(CC(=O)NCc3ccccc3Cl)n2)cc1` [IIIb-1, N-(2-chlorobenzyl)-2-(3-(4-methoxyphenyl)-6-oxopyridazin-1(6H)-yl)acetamide] cannot be ordered by IC50: < 10 µM for the first, < 10 µM for the second.

`CC(C)Oc1ccc(-c2ccc(=O)n(CC(=O)NCc3ccccc3Cl)n2)cc1` [IIIa-2, N-(2-chlorobenzyl)-2-(3-(4-isopropoxyphenyl)-6-oxopyridazin-1(6H)-yl)acetamide] and `CCc1ccc(-c2ccc(=O)n(CC(=O)NCc3ccccc3Cl)n2)cc1` [IIIa-18, N-(2-chlorobenzyl)-2-(3-(4-ethylphenyl)-6-oxopyridazin-1(6H)-yl)acetamide] cannot be ordered by IC50: < 10 µM for the first, < 10 µM for the second.

Compared with `CCNC(=O)Cn1nc(-c2ccc(OC)cc2)ccc1=O` [IIIa-3, N-ethyl-2-(3-(4-methoxyphenyl)-6-oxopyridazin-1(6H)-yl)acetamide], `CNC(=O)Cn1nc(-c2ccc(OC)cc2)ccc1=O` [IIIa-21, 2-(3-(4-methoxyphenyl)-6-oxopyridazin-1(6H)-yl)-N-methylacetamide] is higher in IC50: < 10 µM for the first, 10 to 100 µM for the second. The first is the more potent here.

Going from `COc1ccc(-c2ccc(=O)n(CC(=O)NCC3CCCCC3)n2)cc1` [IIIa-4, N-(cyclohexylmethyl)-2-(3-(4-methoxyphenyl)-6-oxopyridazin-1(6H)-yl)acetamide] to `COc1ccc(-c2ccc(=O)n(CC(=O)NCC3CCOCC3)n2)cc1` [IIIa-29, 2-(3-(4-methoxyphenyl)-6-oxopyridazin-1(6H)-yl)-N-((tetrahydro-2H-pyran-4-yl)methyl) acetamide], the IC50 rises from < 10 µM to > 100 µM. The first is the more potent here.

`COc1ccc(-c2ccc(=O)n(CC(=O)NCCc3ccccc3)n2)cc1` [IIIa-5, 2-(3-(4-methoxyphenyl)-6-oxopyridazin-1(6H)-yl)-N-phenethylacetamide] and `COc1ccc(-c2ccc(=O)n(CC(=O)NCc3ccccc3C)n2)cc1` [IIIa-16, 2-(3-(4-methoxyphenyl)-6-oxopyridazin-1(6H)-yl)-N-(2-methylbenzyl) acetamide] cannot be ordered by IC50: < 10 µM for the first, < 10 µM for the second.

Compared with `CCOc1ccc(-c2ccc(=O)n(CC(=O)NC(C)C)n2)cc1` [IIIa-6, 2-(3-(4-ethoxyphenyl)-6-oxopyridazin-1(6H)-yl)-N-isopropylacetamide], `CCNC(=O)Cn1nc(-c2ccc(OCC3(F)COC3)cc2)ccc1=O` [IIIa-27, N-ethyl-2-(3-(4-((3-fluorooxetan-3-yl)methoxy)phenyl)-6-oxopyridazin-1(6H)-yl)acetamide] is higher in IC50: < 10 µM for the first, 10 to 100 µM for the second.

`COc1ccc(-c2ccc(=O)n(CC(=O)NCc3cc(F)ccc3Cl)n2)cc1` [IIIa-7, N-(2-chloro-5-fluorobenzyl)-2-(3-(4-methoxyphenyl)-6-oxopyridazin-1(6H)-yl)acetamide] and `COc1ccc(-c2ccc(=O)n(CC(=O)NCc3ccc(Cl)cc3Cl)n2)cc1` [IIIa-12, N-(2,4-dichlorobenzyl)-2-(3-(4-methoxyphenyl)-6-oxopyridazin-1(6H)-yl)acetamide] cannot be ordered by IC50: < 10 µM for the first, < 10 µM for the second.

`COc1ccc(-c2ccc(=O)n(CC(=O)NCc3cccc(Cl)c3)n2)cc1` [IIIa-8, N-(3-chlorobenzyl)-2-(3-(4-methoxyphenyl)-6-oxopyridazin-1(6H)-yl)acetamide] and `COc1ccc(-c2ccc(=O)n(CC(=O)NCc3cccc(C)c3)n2)cc1` [IIIa-10, 2-(3-(4-methoxyphenyl)-6-oxopyridazin-1(6H)-yl)-N-(3-methylbenzyl) acetamide] cannot be ordered by IC50: < 10 µM for the first, < 10 µM for the second.

Compared with `COc1ccc(-c2ccc(=O)n(CC(=O)NC(C)(C)c3ccccc3)n2)cc1` [IIIa-9, 2-(3-(4-methoxyphenyl)-6-oxopyridazin-1(6H)-yl)-N-(2-phenylpropan-2-yl)acetamide], `COc1ccc(-c2ccc(=O)n(CC(=O)NC(C)c3ccccc3Cl)n2)cc1` (stereo not shown) [IIIa-25, N-(1-(2-chlorophenyl)ethyl)-2-(3-(4-methoxyphenyl)-6-oxopyridazin-1(6H)-yl)acetamide] is higher in IC50: < 10 µM for the first, 10 to 100 µM for the second.

Compared with `COc1ccc(-c2ccc(=O)n(CC(=O)NCc3ccccc3C(F)(F)F)n2)cc1` [IIIa-11, 2-(3-(4-methoxyphenyl)-6-oxopyridazin-1(6H)-yl)-N-(2-(trifluoromethyl)benzyl)acetamide], `COc1ccc(-c2ccc(=O)n(CC(=O)NCc3ccccn3)n2)cc1` [IIIa-30, 2-(3-(4-methoxyphenyl)-6-oxopyridazin-1(6H)-yl)-N-(pyridin-2-ylmethyl)acetamide] is higher in IC50: < 10 µM for the first, > 100 µM for the second. The first is the more potent here.

First: COc1ccc(-c2ccc(=O)n(CC(=O)NCc3ccccc3Cl)n2)c(F)c1 [IIIa-13, N-(2-chlorobenzyl)-2-(3-(2-fluoro-4-methoxyphenyl)-6-oxopyridazin-1(6H)-yl)acetamide]
Second: COc1ccc(-c2ccc(=O)n(CC(=O)NCc3ccccc3Cl)n2)c(C)c1 [IIIa-22, N-(2-chlorobenzyl)-2-(3-(4-methoxy-2-methylphenyl)-6-oxopyridazin-1(6H)-yl)acetamide]
The IC50 of the first is lower: < 10 µM for the first, 10 to 100 µM for the second. The first is the more potent here.

`COc1ccc(-c2ccc(=O)n(CC(=O)NCc3ccc(C)cc3)n2)cc1` [IIIa-15, 2-(3-(4-methoxyphenyl)-6-oxopyridazin-1(6H)-yl)-N-(4-methylbenzyl) acetamide] and `COc1ccc(-c2ccc(=O)n(CC(=O)NCc3ccc(Cl)cc3)n2)cc1` [IIIa-17, N-(4-chlorobenzyl)-2-(3-(4-methoxyphenyl)-6-oxopyridazin-1(6H)-yl)acetamide] cannot be ordered by IC50: < 10 µM for the first, < 10 µM for the second.

First: CCNC(=O)Cn1nc(-c2ccc(C3CC3)cc2)ccc1=O [IIIa-19, 2-(3-(4-cyclopropylphenyl)-6-oxopyridazin-1(6H)-yl)-N-ethylacetamide]
Second: COc1ccc(-c2ccc(=O)n(CC(=O)NCc3cnn(C)c3)n2)cc1 [IIIa-32, 2-(3-(4-methoxyphenyl)-6-oxopyridazin-1(6H)-yl)-N-((1-methyl-1H-pyrazol-4-yl)methyl) acetamide]
The IC50 of the first is lower: < 10 µM for the first, > 100 µM for the second. The first is the more potent here.

First: COc1ccc(-c2ccc(=O)n(CC(=O)NC3(c4ccccc4Cl)CC3)n2)cc1 [IIIa-20, N-(1-(2-chlorophenyl)cyclopropyl)-2-(3-(4-methoxyphenyl)-6-oxopyridazin-1(6H)-yl)acetamide]
Second: COc1ccc(-c2ccc(=O)n(CC(=O)NC3Cc4ccccc4C3)n2)cc1 [IIIb-8, N-(2,3-dihydro-1H-inden-2-yl)-2-(3-(4-methoxyphenyl)-6-oxopyridazin-1(6H)-yl)acetamide]
The IC50 of the first is higher: 10 to 100 µM for the first, < 10 µM for the second.

`COc1ccc(-c2ccc(=O)n(CC(=O)NCc3ccccc3Cl)n2)cc1C` [IIIa-23, N-(2-chlorobenzyl)-2-(3-(4-methoxy-3-methylphenyl)-6-oxopyridazin-1(6H)-yl)acetamide] and `COc1ccc(-c2ccc(=O)n(CC(=O)NCc3ccccc3Cl)n2)cc1F` [IIIa-24, N-(2-chlorobenzyl)-2-(3-(3-fluoro-4-methoxyphenyl)-6-oxopyridazin-1(6H)-yl)acetamide] fall in the same range of IC50: 10 to 100 µM for the first, 10 to 100 µM for the second.

Compared with `COc1ccc(-c2ccc(=O)n(CC(=O)NCc3ccon3)n2)cc1` [IIIa-26, N-(isoxazol-3-ylmethyl)-2-(3-(4-methoxyphenyl)-6-oxopyridazin-1(6H)-yl)acetamide], `COc1ccc(-c2ccc(=O)n(CC(=O)NCc3cnoc3)n2)cc1` [IIIa-31, N-(isoxazol-4-ylmethyl)-2-(3-(4-methoxyphenyl)-6-oxopyridazin-1(6H)-yl)acetamide] is higher in IC50: 10 to 100 µM for the first, > 100 µM for the second. The first is the more potent here.

`COc1ccc(-c2ccc(=O)n(CC(=O)NCc3cnccn3)n2)cc1` [IIIa-28, 2-(3-(4-methoxyphenyl)-6-oxopyridazin-1(6H)-yl)-N-(pyrazin-2-ylmethyl) acetamide] and `COc1ccc(-c2ccc(=O)n(CC(=O)NCc3nccn3C)n2)cc1` [IIIa-33, 2-(3-(4-methoxyphenyl)-6-oxopyridazin-1(6H)-yl)-N-((1-methyl-1H-imidazol-2-yl)methyl) acetamide] cannot be ordered by IC50: > 100 µM for the first, > 100 µM for the second.

Compared with `COc1ccc(-c2ccc(=O)n(CC(=O)NCc3ccno3)n2)cc1` [IIIa-34, N-(isoxazol-5-ylmethyl)-2-(3-(4-methoxyphenyl)-6-oxopyridazin-1(6H)-yl)acetamide], `COc1ccc(-c2ccc(=O)n(CC(=O)Nc3cccc4c3ccn4C)n2)cc1` [IIIb-4, 2-(3-(4-methoxyphenyl)-6-oxopyridazin-1(6H)-yl)-N-(1-methyl-1H-indol-4-yl)acetamide] is lower in IC50: > 100 µM for the first, < 10 µM for the second. The second is the more potent here.

`COc1ccc(-c2ccc(=O)n(CC(=O)Nc3cccc4[nH]ccc34)n2)c(F)c1` [IIIb-2, 2-(3-(2-fluoro-4-methoxyphenyl)-6-oxopyridazin-1(6H)-yl)-N-(1H-indol-4-yl)acetamide] and `COc1ccc(-c2ccc(=O)n(CC(=O)Nc3cccc4[nH]ccc34)n2)cc1` [IIIb-3, N-(1H-indol-4-yl)-2-(3-(4-methoxyphenyl)-6-oxopyridazin-1(6H)-yl)acetamide] cannot be ordered by IC50: < 10 µM for the first, < 10 µM for the second.

`CC(C)c1cccc(NC(=O)Cn2nc(-c3ccc4c(c3)OCCCO4)ccc2=O)c1` [IIIb-5, 2-(3-(3,4-dihydro-2H-benzo[b][1,4]dioxepin-7-yl)-6-oxopyridazin-1(6H)-yl)-N-(3-isopropylphenyl)acetamide] and `O=C(Cn1nc(-c2ccc3c(c2)OCCO3)ccc1=O)Nc1ccccc1F` [IIIb-6, 2-(3-(2,3-dihydrobenzo[b][1,4]dioxin-6-yl)-6-oxopyridazin-1(6H)-yl)-N-(2-fluorophenyl)acetamide] cannot be ordered by IC50: < 10 µM for the first, < 10 µM for the second.

`COc1ccc(-c2ccc(=O)n(CC(=O)NCCC3=CCCCC3)n2)c(F)c1` [IIIb-7, N-(2-(cyclohex-1-en-1-yl)ethyl)-2-(3-(2-fluoro-4-methoxyphenyl)-6-oxopyridazin-1(6H)-yl)acetamide] was tested, and the IC50 was < 10 µM.
